Reference: publication PMC8222713, “Variation of Two S3b Residues in KV4.1–4.3 Channels Underlies Their Different Modulations by Spider Toxin κ-LhTx-1” (Frontiers in Pharmacology, 2021)
Where a SMILES comes first, the peptide text is derived from it. Bridges are numbered along the chain shown (N, C = ends).

What was measured:
[1] = test system: KV2.1 channel (rKV2.1); test: Whole-cell patch clamp selectivity, KV2.1; assay type: cell-based, rat; conditions: KV2.1, 10 µM, n = 5
Description: (§1) The cDNA of hKV1.1, hKV1.3, rKV1.4, hKV1.5, rKV2.1, hKV3.1–3.4, mKV4.1, rKV4.2, and rKV4.3 were subcloned in the eukaryotic expression vector pCDNA3.1 or pCMV-blank. Channel mutants were made by a site-directed mutation method. Briefly, a pair of oppositely directed primers with 15 bp overlap at their 5′ ends and the designed mutation site were used to amplify the parental channel plasmid, then the PCR mix was treated with DpnI to remove the template. 10 μL digestion mix was directly used to transform 100 μL DH5α chemical competent cells. The correct mutation made by this procedure was finally confirmed by DNA sequencing. […] 4–6 h after transfection, cells were seeded onto poly-lysine (PLL) coated coverslips, and 24–36 h later, transfected cells were ready for patch-clamp analysis. […]
(§2) Whole-cell patch clamp recording was performed in an electrophysiology platform equipped with MultiClamp 700B amplifier and Axon Digidata 1550 AD/DA convertor (Axon Instruments, Irvine, CA, United States). […] The whole cell conductance (G) at each depolarizing voltage (V) was determined using the equation: G = I/(V−Vrev), where I and Vrev represents the current amplitude and the reversal potential, respectively. In the present study, Vrev for K^+ current is determined to be −85.61 mV using the Nernst equation. […] Gating currents of KV4.1–4.3 channels were measured as previously reported ([Tilley et al., 2019]). […]

[2] = test system: KV4.3/274LV/AA mutant; test: Whole-cell patch clamp, KV4.3/274LV/AA in CHO-K1 cells; assay type: cell-based, rat; conditions: KV4.3/274LV/AA at Va depolarizing voltage, n = 5–7
Description: as §1, §2

[3] = test system: KV3.4 channel (hKV3.4); test: Whole-cell patch clamp selectivity, KV3.4; assay type: cell-based, human; conditions: KV3.4, 10 µM, n = 5
Description: as §1, §2

[4] = test system: KV4.1/V281M mutant; test: Whole-cell patch clamp, KV4.1/V281M in CHO-K1 cells; assay type: cell-based, mouse; conditions: +30 mV, n = 5
Description: as §1, §2

[5] = test system: KV3.3 channel (hKV3.3); test: Whole-cell patch clamp selectivity, KV3.3; assay type: cell-based, human; conditions: KV3.3, 10 µM, n = 5
Description: as §1, §2

[6] = test system: KV4.3-TN/PK (KV4.3/277PK, T277P/N278K double mutant); test: Whole-cell patch clamp, KV4.3-TN/PK (KV4.3/277PK) in CHO-K1 cells; assay type: cell-based, rat
Description: (§3) The cDNA of hKV1.1, hKV1.3, rKV1.4, hKV1.5, rKV2.1, hKV3.1–3.4, mKV4.1, rKV4.2, and rKV4.3 were subcloned in the eukaryotic expression vector pCDNA3.1 or pCMV-blank. Channel mutants were made by a site-directed mutation method. Briefly, a pair of oppositely directed primers with 15 bp overlap at their 5′ ends and the designed mutation site were used to amplify the parental channel plasmid, then the PCR mix was treated with DpnI to remove the template. 10 μL digestion mix was directly used to transform 100 μL DH5α chemical competent cells. The correct mutation made by this procedure was finally confirmed by DNA sequencing. CHO-K1 cells (ATCC® CCL-61™) were grown in DMEM-F12 mixed medium (1:1) supplemented with 10% FBS and maintained in standard conditions (saturated humidity, 37°C, 5% CO2). Channel plasmid was co-transfected with pEGFP-N1 (encodes the green fluoresence protein) into CHO-K1 cells using lipofectamine 2000 following the manufacturer’s instructions. 4–6 h after transfection, cells were seeded onto poly-lysine (PLL) coated coverslips, and 24–36 h later, transfected cells were ready for patch-clamp analysis. It should be note that KV4.2 and its mutants were also co-expressed with hKChIP1 to promote their functional expressions.
(§4) Whole-cell patch clamp recording was performed in an electrophysiology platform equipped with MultiClamp 700B amplifier and Axon Digidata 1550 AD/DA convertor (Axon Instruments, Irvine, CA, United States). Data were acquired using the pClamp software (Axon Instruments, Irvine, CA, United States). All experiments were performed at room temperature. The bath solution contains (in mM): 140 NaCl, 5 KCl, 1 MgCl2, 2 CaCl2, 10 glucose, and 10 HEPES (pH = 7.3). The pipette solution contains (in mM): 140 KCl, 2.5 MgCl2, 11 EGTA, and 10 HEPES (pH = 7.3). Series resistance was kept below 10 MΩ and compensated to 80%. The concentration–response curves were fitted by a Hill logistic equation to estimate the potency (IC50) of the toxin. The whole cell conductance (G) at each depolarizing voltage (V) was determined using the equation: G = I/(V−Vrev), where I and Vrev represents the current amplitude and the reversal potential, respectively. In the present study, Vrev for K^+ current is determined to be −85.61 mV using the Nernst equation. G-V curve was obtained by plotting the normalized G as a function of V and fitted by the Boltzmann equation: y = 1/{1 + exp [(Va−V)/K]}, in which Va, V, and K represents half-maximum activation voltage, test voltage and slope factor, respectively. The steady-state fast inactivation of KV4 channels was measured using a classical two-pulses protocol: cell was held at −120 mV, and a train of conditional voltages (−120–40 mV, in 10 mV increment, 1,000 ms) were applied to induce channel inactivation, followed by a +60 mV test pulse (300 ms) to assess the proportion of non-inactivated channels; the sweep interval was set to 10 s. Currents at the test pulse (I) were normalized to the maximum value (Imax) and plotted as a function of the conditional voltage (V), the curve was fitted by the Boltzmann equation: I/Imax = A + (1−A)/{1 + exp [(V−Vh)/K]}, where Vh is the half-maximum inactivation voltage, A represents the minimum channel availability, and K is the slope factor. Gating currents of KV4.1–4.3 channels were measured as previously reported ([Tilley et al., 2019]). Briefly, the ionic pore currents were abolished by replacing K^+ with NMDG^+ in the pipette solution, and 10 µM Cs^+ was present in the bath solution to occupy the selectivity filter of KV channels to prevent decay of the gating currents during recording.
(§5) Data were presented as MEAN ± SEM, n represents the number of separate experimental cells. Data were analyzed using the software Clampfit 10.5 (Axon Instruments, Irvine, CA, United States), Graphpad Prism 5.01 (GraphPad Software, La Jolla, CA, United States) and Excel 2010 (Microsoft Corporation, Redmond, WA, United States). […]

[7] = test system: KV4.1/282TD (P282T/K283D double mutant); test: Whole-cell patch clamp, KV4.1/282TD in CHO-K1 cells; assay type: cell-based, mouse
Description: as §3, §4, §5

[8] = 10 μM κ-LhTx-1, KV4.3-TN/PK, G-V, mean ± SEM, n = 5
[9] = 10 μM κ-LhTx-1, KV4.3-TN/PK, two-pulse protocol, mean ± SEM, n = 5
[10] = 10 μM κ-LhTx-1, G-V, mean ± SEM, n = 5
[11] = 10 μM κ-LhTx-1, two-pulse protocol, mean ± SEM, n = 5

Q: With CC[C@H](C)[C@@H]1NC(=O)[C@H](CCC(N)=O)NC(=O)[C@@H]2CSSC[C@@H]3NC(=O)[C@H](CC(C)C)NC(=O)[C@H](CC(N)=O)NC(=O)[C@H](CCSC)NC(=O)[C@H](Cc4c[nH]c5ccccc45)NC(=O)[C@H](CO)NC(=O)[C@H](C)NC(=O)[C@@H](NC(=O)[C@H](CCC(=O)O)NC(=O)[C@H](CCC(N)=O)NC(=O)[C@H](C)NC(=O)[C@H](CC(=O)O)NC(=O)[C@@H](N)CCC(=O)O)CSSC[C@H](NC(=O)[C@H](CSSC[C@@H](C(=O)N[C@@H](CCCCN)C(=O)N[C@@H](Cc4ccc(O)cc4)C(=O)N[C@@H](CCCCN)C(=O)N[C@@H](CC(C)C)C(N)=O)NC(=O)[C@H](Cc4c[nH]c5ccccc45)NC1=O)NC(=O)[C@H](CCCCN)NC(=O)[C@H](CCCCN)NC(=O)[C@H](CCC(=O)O)NC(=O)CNC3=O)C(=O)N[C@@H](CCC(=O)O)C(=O)NCC(=O)N[C@@H](Cc1ccc(O)cc1)C(=O)N[C@@H](C(C)C)C(=O)N2 [κ-LhTx-1] (H-EDAQECASWMNLCGEKKCCEGYVCQIWCKYKL-NH2; disulfide 6-19, 13-24, 18-28 (inferred); N-terminus and C-terminus assumed) as the molecule, how does the effect on currents [1] read?
A: did not remarkably affect the currents

Q: And the “effect of mutation on toxin inhibition” value [2]?
A: profoundly weakened the effect

Q: What about the effect on currents [3] of the same molecule?
A: did not remarkably affect the currents

Q: What about the “potency vs wild-type KV4.1” value [4] of the same molecule?
A: only slightly reduced κ-LhTx-1 potency

Q: And the effect on currents [5]?
A: did not remarkably affect the currents

Q: And the “Va (steady-state activation)” value [6, 8]?
A: 81.96 ± 2.27 mV

Q: And the “k, slope factor (steady-state activation)” value [6, 8]?
A: 15.09 ± 1.14 mV

Q: What about the “Vh (steady-state inactivation)” value [6, 9] of the same molecule?
A: -25.43 ± 2.92 mV

Q: And the “k, slope factor (steady-state inactivation)” value [6, 9]?
A: 15.31 ± 2.02 mV

Q: What about the “∆Va and inhi%(min) vs KV4.1” value ([6]; KV4.3/277PK, 10 μM) of the same molecule?
A: not significantly different from those in KV4.1

Q: And the “∆Va (steady-state activation)” value ([6]; Va shift by 10 μM κ-LhTx-1 vs control, KV4.3-TN/PK, mean ± SEM)?
A: 87.43 ± 2.99 mV

Q: What about the “∆Vh (steady-state inactivation)” value ([6]; Vh shift by 10 μM κ-LhTx-1 vs control, KV4.3-TN/PK, mean ± SEM) of the same molecule?
A: 26.29 ± 3.52 mV

Q: What about the “Va (steady-state activation)” value [7, 10] of the same molecule?
A: 29.00 ± 0.52 mV

Q: What about the “k, slope factor (steady-state activation)” value [7, 10] of the same molecule?
A: 25.50 ± 0.51 mV

Q: What about the “Vh (steady-state inactivation)” value [7, 11] of the same molecule?
A: -56.22 ± 2.80 mV

Q: What about the “k, slope factor (steady-state inactivation)” value [7, 11] of the same molecule?
A: 5.95 ± 0.32 mV

Q: And the “inhi%(min)” value ([7]; 10 μM, +100 mV)?
A: approaching zero

Q: And the “∆Va (steady-state activation)” value ([7]; Va shift by 10 μM κ-LhTx-1 vs control, mean ± SEM)?
A: 37.82 ± 2.83 mV

Q: And the “∆Vh (steady-state inactivation)” value ([7]; Vh shift by 10 μM κ-LhTx-1 vs control, mean ± SEM)?
A: 3.38 ± 3.15 mV
